Assay results as given in PubChem BioAssay AID1902 (Broad Institute, 2009).
The source made the active and inactive calls.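 Rule for the calls: active = EC50 no more than a set limit of log units above the highest dose; inactive = the rest.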

Target: S. pyogenes SKKanGAS, kanamycin survival, BacTiterGlo, 6 h
Test: S. pyogenes SKKanGAS kanamycin growth inhibitors – SKKanGAS strain, luminescence, dose confirmation, streptokinase promoter inhibitor project, dose response (AID 1902);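 note: lower survival reflects blocked streptokinase promoter driving kanamycin resistance gene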

Compound	EC50
Cc1cccc2sc(NC(=O)c3ccc(NS(=O)(=O)c4cccs4)cc3)nc12	1.27 µM
C/C(=N/NC(=O)c1cc2ccccc2cc1O)C1C(=O)c2ccccc2C1=O	1.57 µM
CC1C(=O)C(C)C(c2cc(Cl)ccc2O)NC1c1cc(Cl)ccc1O (configuration not stated)	2.32 µM
CCn1nc(NC(=O)c2ccncc2)c2cc3cc(C)ccc3nc21	2.66 µM
C=C(C)COc1ccc(-c2[nH]ncc2Oc2ccc(OC)cc2)c(O)c1	4.05 µM
O=C(NC(=S)N1CCN(C(c2ccccc2)c2ccccc2)CC1)c1ccc(S(=O)(=O)N2CCOCC2)cc1	2.56 µM
O=C(Nc1cccc(NC(=O)c2ccc([N+](=O)[O-])o2)c1)c1ccco1	6.61 µM
Oc1ccc(/C=N/Nc2nc(-c3ccc(Cl)cc3)cc(C(F)(F)F)n2)cc1	7.89 µM
CCn1c(=O)c(C(=O)NNC(=O)c2ccc(Cl)cc2Cl)c(O)c2ccccc21	1.99 µM
Cc1ccc2ccc(C(Nc3cccc(C(F)(F)F)c3)c3cccnc3)c(O)c2n1 (configuration not stated)	1.12 µM
CO[C@H]1C=CO[C@@]2(C)Oc3c(C)c(O)c4c(O)c(c5c(c4c3C2=O)NC2(CCN(CC(C)C)CC2)N=5)=NC(=O)C(C)=CC=C[C@H](C)[C@H](O)[C@@H](C)[C@@H](O)[C@@H](C)[C@H](OC(C)=O)[C@@H]1C	< 0.06 µM
CN1CCN(C(=O)C(=O)c2cn(CC(=O)N3CCCC3)c3ccccc23)CC1	> 15 µM (inactive)
CCC(C)Nc1nc(N)c([N+](=O)[O-])c(Nc2cc(OC)ccc2OC)n1 (configuration not stated)	1.95 µM
CC1CC(C)(C)n2c(O)c(N=NC(N)=S)c3cccc1c32 (configuration not stated)	4.84 µM
CC(C)C(=O)NC(c1cccs1)c1cc([N+](=O)[O-])c2cccnc2c1O (configuration not stated)	1.45 µM
CCCCCCCCCCC(=O)NNC(=O)c1c(O)c2ccccc2n(CC)c1=O	0.185 µM
c1ccc(-c2csc3ncnc(N4CCc5ccccc5C4)c23)cc1	7.04 µM
CCOC(=O)c1ccc(NC(=O)c2nc[nH]c2C(=O)N[C@@H](CCCCNC(=O)OC(C)(C)C)C(=O)OC(C)(C)C)cc1	4.72 µM
Cc1onc(-c2ccccc2)c1C(=O)NNC(=S)NC(=O)c1ccc(Br)cc1	0.174 µM
C[C@H]1COc2c(N3CCN(C)CC3)c(F)cc3c(=O)c(C(=O)O)cn1c23	1.55 µM
Cc1ccccc1OCC(=O)NNC(=S)NC(=O)c1ccco1	0.338 µM
CC(=O)Oc1ccccc1C1=NN(C(=O)/C=C/c2ccccc2)C(c2ccccc2)C1 (configuration not stated)	5.15 µM

Compound	EC50
Cc1onc(-c2ccccc2)c1C(=O)NC(=S)NNC(=O)c1ccc(O)cc1O	2.67 µM
Cc1cccc(NC(=O)NCc2ccc3c(c2)OCO3)c1	> 15 µM (inactive)
Cc1ccc(O)c(C(=O)CC(=O)c2ccccc2Cl)c1	3.52 µM
Cc1ccc(C(=O)NNC(=S)NC(=O)c2ccc(Cl)cc2)cc1	0.074 µM
S=C(NCCSCc1ccc(Cl)c(Cl)c1)Nc1ccccc1	3.71 µM
O=C(Nc1cccc(-c2csc(Nc3ccc(Cl)cc3)n2)c1)c1ccccc1	4.45 µM
O=C(N/N=C/c1cc2c3c(c1O)CCCN3CCC2)c1ccccc1O	7.14 µM
COc1ccc(OC)c2[nH]c(C(=O)N/N=C/c3ccccc3O)cc12	1.64 µM
COc1cc2c(C(=O)N3CCN(c4ccccc4C)CC3)c(C)oc2cc1Br	10.3 µM
Cc1cccc(C)c1OCC(=O)NNC(=S)NC(=O)C1CC1	0.304 µM
COC(=O)C1=C(C)NC2=C(C(=O)c3ccccc32)C1c1ccc(-c2ccc(C(=O)O)cc2)o1 (configuration not stated)	2.76 µM
O=C(O)c1cccc2c(-c3ccccc3)c(-c3ccccc3)[nH]c12	8.51 µM
Cc1ccc(Cc2cnc(N3C(=N)SC(c4ccccc4)C3=O)s2)cc1 (configuration not stated)	0.105 µM
O=C(Cc1ccc(Br)cc1)Nc1nc2ccccc2[nH]1	4.55 µM
CCCCn1c(O)c(N=NC(=O)c2ccccc2NS(=O)(=O)c2cccs2)c2ccccc21	5.06 µM
N#C/C(=C(/O)c1cc2ccccc2o1)c1nc2ccccc2s1	9.58 µM
FC(F)(F)c1cccc(Nc2nc(N3CCCC3)nc(N3CCCC3)n2)c1	2.23 µM
Cc1cc(N2C(=O)C(O)=C(C(=O)c3cc4ccccc4o3)C2c2ccc(Br)cc2)no1 (configuration not stated)	1.24 µM
CCN(CC)c1ccc(-c2nn3c(-c4ccccc4OC)nnc3s2)cc1	6.21 µM
Cc1cccc(C)c1-n1cccc1/C=C1\SC(=S)N(c2cccc(C(=O)O)c2)C1=O	2.26 µM
COc1cccc(C(=O)NC(=S)N2CCN(c3ccc(C(F)(F)F)cc3[N+](=O)[O-])CC2)c1	> 15 µM (inactive)
O=C(NC(=S)N(Cc1ccccc1)Cc1ccccc1)c1ccccc1F	0.752 µM

Compound	EC50
CCC(=C/c1sc2ccc3ccccc3c2[n+]1C)/C=C1\Sc2ccc3ccccc3c2N1C	2.67 µM
Cc1ccc(-c2nc3c(Cl)cc(Cl)cc3c(=O)n2O)cc1	0.808 µM
O=C(NNC(=S)NC(=O)c1cccs1)c1ccc(NC(=O)c2ccccc2)cc1	0.556 µM
CC(C)c1ccccc1OCC(=O)NC1CCCc2ccccc21 (configuration not stated)	11.7 µM
C[C@]12CCC(O)CC1CCC1C2CC[C@]2(C)C(c3cc(C(F)(F)F)n[nH]3)CCC12 (some centres not stated)	1.9 µM
O=C1c2ccccc2CCC12N=NCC2c1ccc(Br)cc1 (configuration not stated)	14.8 µM
O=C1C=C(N2CCCCC2)c2ccccc2C1=O	3.67 µM
CC1(C)S[C@@H]2[C@H](NC(=O)Cc3ccccc3)C(=O)N2[C@H]1C(=O)O	< 0.06 µM
Cc1ccccc1-n1cnc2cc(NCc3cccs3)ccc21	4.69 µM
O=[N+]([O-])c1ccc(NCc2ccc(Cl)cc2)c2ccncc12	9.29 µM
COc1ccccc1NS(=O)(=O)c1cc(NC(=S)NCC2CCCO2)ccc1C (configuration not stated)	> 15 µM (inactive)
Fc1ccccc1CNc1ccc(Cl)c(Cl)c1	15.6 µM
CC[C@@H](C)[C@H](CNC)NC[C@@H](Cc1cccc2ccccc12)NCCc1cccc(C(F)(F)F)c1	2.44 µM
CCC(C)c1ccccc1NS(=O)(=O)c1cnn(CC)c1 (configuration not stated)	> 15 µM (inactive)
CN(C(=O)CSc1nc(-c2ccc(C(C)(C)C)cc2)c(C#N)c(=O)[nH]1)C1CCCCC1	1.36 µM
Cc1ccc(C)c(-c2cc(C(=O)Nc3sc(C)c(C)c3C(N)=O)c3ccccc3n2)c1	3.55 µM
CC1CCCN(S(=O)(=O)c2ccc(C(=O)Nc3nnc(C4CC4)o3)cc2)C1 (configuration not stated)	3.3 µM
O=c1[nH]c(CSc2ncnc3sccc23)nc2ccccc12	2.25 µM
C/C(=N\Nc1nc2ccccc2[nH]1)c1ccc2c(c1)OCO2	4.28 µM
COc1ccccc1N=Nc1nc(-c2ccccc2)c(-c2ccccc2)[nH]1	1.39 µM
Clc1ccc(-c2n[nH]c3c2CCC3)c(Cl)c1	0.975 µM
Cc1ccc2sc(NNC(=O)c3cc(-c4cccs4)nc4ccccc34)nc2c1C	0.859 µM

Compound	EC50
CCCn1c(NC(=O)c2cccc(C)c2C)nc2ccccc21	7.37 µM
COc1cccc(-c2cc(C(F)(F)F)nc(N3CCCCC3)n2)c1	4.86 µM
Cc1cc(C(=O)OC(C(=O)Nc2cccc(C(F)(F)F)c2)c2ccccc2)c(C)o1 (configuration not stated)	10.1 µM
COc1cc(OC)cc(C(=O)Nc2nc(CC(=O)NCc3ccccc3OC)cs2)c1	12.4 µM
COc1ccc2oc(=O)c(-c3csc(Nc4ccc(O)cc4)n3)cc2c1	2.16 µM
Cc1cccc2sc(NNC(=O)c3cc(=O)c4ccccc4o3)nc12	0.42 µM
CCCCn1c(=O)c(C(=O)NCCc2ccccc2)c(O)c2ccccc21	3.73 µM
CCN(CC)S(=O)(=O)c1ccc(N2CCOCC2)c(NC(=O)C2CSC3(C)CCC(=O)N23)c1 (configuration not stated)	> 15 µM (inactive)
O=C(NC(=S)N1CCN(c2ccc(Cl)cc2[N+](=O)[O-])CC1)c1cccs1	2.75 µM
O=C(COC(=O)c1ccccc1)Nc1ccccc1Sc1ccccc1	8.89 µM
Cc1ccc(OP(=O)(Nc2cccc(C)c2)Oc2ccc(C)cc2)cc1	9.09 µM
CCCC(O)(c1ccc(Br)cc1)C(CN1CCOCC1)c1ccc(Cl)cc1 (configuration not stated)	10.1 µM
CC(=O)NNC(=S)NC(=O)C(c1ccccc1)c1ccccc1	0.853 µM
CC1CCc2c(sc3nc(C(C)(C)C)nc(N4CCN(C(=O)CCl)CC4)c23)C1 (configuration not stated)	3.6 µM
CN1/C(=C\C(=O)Nc2ccc(Cl)cc2)C(C)(C)c2ccccc21	8.64 µM
Cc1c(Cl)c(C(F)F)nn1CC(=O)NC1C(=O)N2C(C(=O)O)=C(CSc3nnnn3C)CSC12 (configuration not stated)	< 0.06 µM
O=C(NC(=S)N1CCN(c2nc(-c3ccccc3)cs2)CC1)c1cccnc1	4.08 µM
Oc1c(N=Nc2ccccn2)ccc2ccccc12	2.58 µM
CCOc1ccccc1C(=O)OCC(=O)Nc1nnc(-c2ccccc2)o1	6.94 µM
CCN(CC)C(=O)c1cc(-c2ccc(Br)cc2)on1	> 15 µM (inactive)
CC(=O)C(=Nc1ccc(Cl)cc1Cl)NNc1cccc(Cl)c1	5.07 µM
CCOP(=O)(Cc1ccc(C(=O)CC)o1)OCC	> 15 µM (inactive)

Compound	EC50
Fc1ccc(-c2csc3ncnc(N4CCc5ccccc5C4)c23)cc1	2.73 µM
Cc1nn(-c2ccccc2)c(C)c1/C=N/NC(=O)c1cc(-c2cccc3ccccc23)n[nH]1	6.54 µM
COc1cc(C)c(C(=O)CC(=O)c2c(C)cc(OC)cc2C)c(C)c1	1.61 µM
CCCOC(=O)c1ccc(Oc2cn[nH]c2-c2ccc(OC)cc2O)cc1	7.36 µM
Cc1cc(C)c(COc2ccc(/C=N/n3c(C)n[nH]c3=S)cc2)c(C)c1	5.33 µM
CCCc1sc(N/N=C/c2ccccn2)nc1-c1ccc(Br)cc1	0.241 µM
COc1ccc(C(=O)CSc2nnc(CNC(=O)c3ccc(S(=O)(=O)N(C)C)cc3)o2)cc1	> 15 µM (inactive)
Cc1cc(N/N=C/c2c(O)ccc3ccccc23)nc(-c2ccccc2O)n1	0.257 µM
COc1ccc(Cn2c(SCc3ccc(C)cc3)nc3cc(OC)c(OC)cc3c2=N)cc1Cl	2.65 µM
c1ccc(CSC2=NNC(c3ccccn3)S2)cc1 (configuration not stated)	1.13 µM
CCOC(=O)c1c(N)sc(C(O)(C(F)(F)F)C(F)(F)F)c1-c1ccc(Cl)cc1	3.17 µM
O=C(c1cc(-c2ccccc2)nc2ccccc12)N1CCN(c2ccccc2O)CC1	6.96 µM
CC(C)(C)OC(=O)[C@H](Cc1ccccc1)NC(=O)c1[nH]cnc1C(=O)Nc1ccc(Cl)cc1	3.52 µM
CC(C)(C)c1ccc(C(=O)Nc2nnc(C3=COCCO3)o2)cc1	0.446 µM
COc1cc2oc3ccc(C#Cc4ccc(N)cc4)cc3c(=O)c2cc1OC	0.799 µM
CNC(=O)c1c(NC(=O)c2ccc(N3C(=O)CCC3=O)cc2)sc2c1CCC(C)C2 (configuration not stated)	15.7 µM
Oc1c(Cl)cc(Cl)cc1C=Nc1cc(C(F)(F)F)ccc1N1CCc2ccccc2C1	3 µM
Cc1cccc(-c2oc3ccccc3c2C#CCCCCO)c1	5.72 µM
CCc1ccc(/C=C/C(=O)c2cc(Br)ccc(=O)c2O)cc1	0.417 µM
